Experimental data from patent US6965035B1, “Compacted forms of halogenated hydantoins” (priority 2002, dated 2005).

Experiments:
Type in all cases: physicochemical
[1] = Dissolution of granules or tablets in swimming pool skimmer basket under recirculated pool water
Source text: A swimming pool skimmer basket was divided into two halves by means of a simple plastic partition placed across the basket diameter. One half of the basket had 50 grams of pure (wax-free) DBDMH granules placed in it. In the other half of the skimmer basket was placed 50 grams of DBDMH/1 wt % MPP-611 wax granules. […] The basket, containing both sets of granules, was introduced to the skimmer of an above-ground pool. Swimming pool water was pumped past the granules in the skimmer basket by means of the pool recirculation pump. The flow rate was around 30 gallons per minute (gpm) and the water temperature was 60° F. (15.5° C.). After 6 hours, the pump was turned off and the skimmer basket containing the partially-dissolved granules was removed. The granules were removed from their respective halves of the skimmer basket and placed in crystallizing dishes to dry overnight. Each set of granules was reweighed. The weight of the undissolved portion was subtracted from the initial weight, and the amount dissolved (the difference) was expressed in terms of % dissolved (the relative dissolution rate). Table 5 lists the relative amount dissolved for both sets of granules. The procedures described in Example 4 were repeated using pure (wax-free) DBDMH granules and DBDMH/2 wt % MPP-611 wax granules. The water temperature was 66° F. (19° C.). Table 5 lists the relative amount dissolved for both sets of granules. The skimmer basket setup described in Example 4 was used. In one half of the basket, tablets of DBDMH/3 wt % MPP-611 wax (5×24 g; total weight, 120 g; each tablet is 1 inch in diameter) were placed an equal distance apart from each other. In the other half of the basket, tablets of pure (wax-free) 1,3-bromochloro-5,5-dimethylhydantoin (BCDMH; 5×20 g; total weight, 100 g) were similarly arranged. Both sets of tablets were one inch in diameter, so the effective surface area exposed was approximately the same for each set of tablets. The skimmer basket containing the tablets was placed into the skimmer of an above-ground swimming pool. Pool water was pumped past the tablets in the skimmer basket by means of the pool recirculation pump. The flow rate was around 30 gpm, the water temperature was 82.1° F. (27.8° C.), and water was recirculated for 16 hours. The tablets were dried and re-weighed. The weight of the undissolved portion was subtracted from the initial weight, and the amount dissolved (the difference) was expressed in terms of % dissolved (the relative dissolution rate). The amount of product dissolved was 75.5 g for the BCDMH tablets and 13.4 g for the DBDMH/3 wt % MPP-611 wax tablets. The BCDMH tablets dissolved at a rate 5.6 times faster (based on weight dissolved) than the DBDMH/3 wt % MPP-611 wax tablets. Based on the respective solubility of wax-free DBDMH and BCDMH powders, a relative dissolution factor of about 2 would have been expected (with the BCDMH dissolving faster).

[2] = Specific surface area of granules by nitrogen adsorption BET technique; details: 3.5–5 mesh granules, material from recycle compaction (Runs 1–3)
Description: To minimize size effects, a 3.5–5 mesh cut of the granulated material was used in this experiment. The material used in Runs 1–3 were from recycle compaction, and the material used in Run 4 was from first-run compaction. The surface area of the granules was determined by the well-known nitrogen adsorption BET technique. The BET technique consists of (1) removing adsorbed gases from the sample with heat and vacuum, (2) adsorbing a mono-layer of nitrogen on the surface at liquid nitrogen temperature, (3) measuring the amount of adsorbed nitrogen, and (4) calculating the total surface area of the sample from an assumed cross-sectional area of nitrogen molecules. The total surface area was divided by the sample weight to yield the specific surface area. Specific surface area is defined as the exposed surface area of 1 gram of the sample tested. A Coulter Model 3100 instrument was used.

[3] = Peak load tolerance test of granules (Sintech 1/S compression apparatus); details: 3.5–5 mesh cut of granules; average of ten runs; standard deviation in parentheses
Description: To minimize size effects, a 3.5–5 mesh cut of the granulated material was used in this experiment. Peak load tests were performed on DBDMH granules without wax, with 1 wt % wax, and with 2 wt % wax. The wax in both instances was micronized polyethylene wax (MPP-611). Granules of approximately the same size were selected by visual inspection; measurements of the thickness of the granules were not made because of the very irregular shapes of the granules. Peak load tolerance tests were performed utilizing a Sintech® 1/S compression apparatus (MTS Systems Corporation, Edenprairie, Minn.) equipped with Testworks software. The apparatus included a horizontal circular-shaped load cell interfaced with a computer, a digital micrometer also interfaced with the computer, and a vertical screw-driven piston disposed above the load cell and adapted to apply a downward force perpendicular to the load cell. Each granule was placed on its edge on the load cell with the piston in contact with at least a part of the upper edge of the granule. The piston often could not contact the entire upper edge of the granule due the irregular morphology of the granule. […] At the same time, the load cell continuously measured the downward force being applied to the granule, and the input of such measurements was transmitted to the computer. […]

SMILES	Amount dissolved ([1]; 1 inch tablets, about 30 gpm, water 82.1° F. (27.8° C.), 16 hours (text Example 6))	Amount of product dissolved ([1]; tablets, 5×20 g BCDMH or 5×24 g DBDMH/wax, about 30 gpm, 82.1° F., 16 hours)	Dissolution rate relative to DBDMH/3 wt % MPP-611 wax tablets (based on weight dissolved) ([1]; tablets, 82.1° F., 16 hours)	Surface Area [2]	Average peak load [3]	Amount dissolved ([1]; 50 g granules >8 U.S. mesh, about 30 gpm, water 60° F. (15.5° C.), 6 hours (text Example 4))	Amount dissolved ([1]; 50 g granules, about 30 gpm, water 66° F. (19° C.), 6 hours (text Example 5))
CC1(C)C(=O)N(Cl)C(=O)N1Br [BCDMH tablets (no wax), 1,3-bromochloro-5,5-dimethylhydantoin]	75.5%	75.5 g	5.6 times faster	–	–	–	–
CC1(C)C(=O)N(Br)C(=O)N1Br [DBDMH, wax-free, 1,3-dibromo-5,5-dimethylhydantoin]	–	–	–	5.1 m^2/g	11.7 (3.4) lb.	44%	60%
